The values that follow come from patent publication US4816482A, “Radioprotective agents having an amino-thioalkyl structure” (priority 1983, dated 1989).

The subject of data set [1] is mice. Description: Acute toxicity (LD50), i.p. In kind it is in vivo. The conditions noted are these: for toxicity (in words): mouse, in vivo.
A short description of data set [2]: Acute toxicity (LD50), i.p. In kind it is in vivo, mice. The settings on record: mouse, in vivo, ip.
Data set [3] deals with mice. Kind of data set: Radioprotective activity: survival at the 30th day after irradiation. Type of data set: in vivo. The conditions noted are these: for radioprotective activity (in words): mouse, in vivo; for responders at 600 mg/kg: 600 mg/kg i.p. As for the experimental part: This study of radioprotective activity was carried out according to a technique described by M. Fatome at al., Eur. J. Med. Chem. 1977, 12, (1), 93. […] This dose is equal to 950 Rad.
More complete studies are recorded in Table II.

For data set [4], the system named is normal tissues / tumours. The conditions noted are these: literature knowledge; cited from earlier work.
Data set [5] deals with mice. The conditions noted are these: cited from earlier work.
The test system of data set [6] is bone marrow. Kind of data set: FRD on bone marrow. The conditions noted are these: in vivo.
Data set [7] can be described thus: Chemical stability. The conditions noted are these: I 102 compared with WR 2721. In kind it is physicochemical.
For data set [8], the system named is EMT 6 tumours. Kind of data set: Gain factor (bone marrow FRD/tumour FRD) on EMT 6 tumours. In kind it is in vivo. The conditions noted are these: 5×10^-1 survival level.
The conditions of data set [9]: cited from earlier work.
For data set [10], the system named is normal tissues / tumours. Kind of data set: Selectivity of protection: normal tissues versus tumours. The conditions noted are these: EMT6 and HT19 tumours, except if necrotised.

In general, LD50 refers to the dose at which mortality reaches 50%. Low values mean a more toxic substance, high ones a less toxic substance.

Molecules are shown by their SMILES. Entries after “also recorded” stand apart in the source; their conditions may differ. Where a name gives a salt, the structure may show the parent alone. Read-outs that look alike come from different tables or passages of the source.

In the case of `CC(=O)SCCNC(=O)[C@H](C)N.O=C(O)C(F)(F)F` [Example 22], the figures for the median lethal dose (LD50) in data set [1] (Table I) and in data set [2] (Table II) were 1,250 mg/kg and 1250 mg/kg, respectively. Moreover, the “toxicity (in words)” value in [1] is on record as “low toxicity”. In addition, the “radioprotective activity (in words)” value in data set [3] was “good radioprotection”.
On to `NCCS` [cysteamine, β-mercaptoethylamine], for which, in data set [4], the “selectivity of protection (in words)” value is “non-selective protection of the cells”.
Turning to `C[C@H](N)C(=O)NCCSSCCNC(=O)[C@H](C)N.O=C(O)C(F)(F)F.O=C(O)C(F)(F)F` [Example 45, N,N'-[…] DI(TRIFLUOROACETATE)], the “toxicity (in words)” value in data set [1] is “low toxicity”. The LD50 in data set [2] (Table I) and in [2] (Table II) was 1200 mg/kg in each case. Moreover, the responders at 600 mg/kg in data set [3] (Mus musculus, ip, 720 h, read-out: % survival at 30 days, Table II, 4th entry, time and Rad not given) was found to be 50%; in data set [3] (Mus musculus, light or radiation study, ip, 720 h, read-out: % survival at 30 days, Table II, 2 (hours, cut off) before irradiation, 900 Rad), 50%; in data set [3] (Mus musculus, light or radiation study, ip, 720 h, read-out: % survival at 30 days, Table II, 15' before irradiation, 900 Rad) it was 100%; in data set [3] (Mus musculus, light or radiation study, ip, 720 h, read-out: % survival at the 30th day, Table I, 15' before irradiation at 900 or 950 Rad) it was 100%. Besides, in [3] (Mus musculus, light or radiation study, ip, 720 h, read-out: % survival at 30 days, Table II, 150 mg/kg i.p., 15' before irradiation, 900 Rad), the responders at 150 mg/kg came out at 20%. Further, in data set [3], the “radioprotective activity (in words)” value is given as “good radioprotection”.
As to `CC(C)(N)CSS(=O)(=O)O` [H2 N--(C(CH3)2 --CH2 --S--SO3 H], in data set [5] (600 mg/kg, J. R. Piper et al., J. Med. Chem. 1966), the “protection (in words)” value is given as “good protection”.
Take `NCC(O)CSP(=O)(O)O` (stereo not drawn) [WR 77913]: in [5] (mice, 400 mg/kg (i.p.) 30 minutes before irradiation of 950, 970 Rad), the “survival at 30 days” value is listed as 100%.
In the case of `CC(=O)OC(CNC(=O)CN)CSC(C)=O` (stereo not drawn) [Example 32, TRIFLUOROACETATE], the “toxicity (in words)” value in data set [1] is given as “low toxicity”. Also, the results for the LD50 in data set [2], in data set [2] (Table I) and in data set [2] (Table II) were > 1500 mg/kg, 1500 mg/kg and 1500 mg/kg, respectively. Besides, the “survival at 30 days” value is listed as 70% in data set [3] (250 mg/kg, 900 Rad) and 80% in [3] (1,000 mg/kg, 1,100 Rad). In addition, the responders at 1000 mg/kg was 100% in data set [3] (Mus musculus, light or radiation study, ip, 720 h, Table I, 1,000 mg/kg i.p., 15' before irradiation at 900 or 950 Rad, read-out: % survival at the 30th day); 100% in data set [3] (Mus musculus, light or radiation study, ip, 720 h, Table II, 1,000 mg/kg i.p., 15' before irradiation, 900 Rad, read-out: % survival at 30 days); 80% in [3] (Mus musculus, light or radiation study, ip, 720 h, Table II, dose not printed (1,000 mg/kg in text), 15' before irradiation, 1,100 Rad, read-out: % survival at 30 days). The responders at 250 mg/kg in data set [3] (Mus musculus, light or radiation study, ip, 720 h, Table II, dose not printed (250 mg/kg in text), 15' before irradiation, 900 Rad, read-out: % survival at 30 days) stood at 70%.
In the case of `CC(=O)NCCSC(=O)CN.O=C(O)C(F)(F)F` [Example 34], the results for the LD50 in data set [1] (Table I) and in [2] (Table II) were 1,000 mg/kg and 1000 mg/kg, respectively. Also, the “radioprotective activity (in words)” value in data set [3] is reported as “slight radioprotective action”.
With `NCCCNCCSP(=O)(O)O` [WR 2721], the “FRD on bone marrow” value in [6] is 2.7. Besides, in [7], the “chemical stability (in words)” value is “unstable; also recorded: not very stable”. The molecule also came in with an LD50 in data set [1] of 950 mg/kg. Moreover, the “gain factor (bone marrow FRD/tumour FRD)” value in [8] was 1.2. Moreover, in data set [4], the “selectivity of protection (in words)” value was “protecting normal tissues against radiation-induced damage, while allowing solid tumors to bear alone the effect of the radiation; also recorded: concentrates selectively in healthy cells and not in cancer cells; also recorded: concentrating selectively in normal tissues (and not in cancer cells); also recorded: selectively protects normal tissues against radiation-induced damage”. In addition, the “solubility in water (in words)” value in data set [9] was “high solubility in water”.
`N[C@@H](CS)C(=O)O` [cysteine]: in data set [4], the “selectivity of protection (in words)” value is recorded as “non-selective protection of the cells”.
`Br.Br.NCC(=O)NCCSSCCNC(=O)CN` [Example 16, N,N'-[…] DIHYDROBROMIDE]: the 50% lethal dose (LD50) in data set [1] (Table I) is 1,500 mg/kg. Moreover, the responders at 750 mg/kg in data set [3] (Mus musculus, light or radiation study, ip, 720 h, read-out: % survival at the 30th day, Table I, 750 mg/kg i.p., 15' before irradiation at 900 or 950 Rad) was 100%.
For `CC(=O)SCCNC(=O)CN` [I 102, N-glycyl-S-acetylcysteamine], the “FRD on bone marrow” value in [6] is 1.4. The LD50 in data set [2] is > 1500 mg/kg. Moreover, the “gain factor (bone marrow FRD/tumour FRD)” value in [8] amounted to 1.2. In [10], the “protection of tumours (in words)” value is reported as “does not protect tumours (or protects them to only a small extent)”.
